Results published in US20200179369A1, “TREATMENT OF DIABETIC NEPHROPATHY” (TAKEDA GMBH, priority 2015, published 2020).

Key:
[1] = system: uninephrectomized db/db mice; assay: Diabetic nephropathy in uninephrectomized db/db mice, 8 week treatment starting 12 weeks after the uninephrectomy; type: in vivo; settings: 8 weeks starting 12 weeks after uninephrectomy
Experimental: The experimental protocol is similar to the experimental protocol described above with the exception that the 8 week treatment with Compound A or irbesartan was started not already at 4 weeks after the uninephrectomy, but only 12 weeks after the uninephrectomy (i.e. when the increase of urinary albumin/creatinine ratio (UACR) is already in a much more advanced stage). Roflumilast was not used as a comparator in this experiment.
Compound A (1, 3 and 10 mg/kg, QD) and irbesartan (50 and 100 mg/kg, QD) were suspended in 0.5% methyl cellulose solution and orally administered to mice for 8 weeks starting 12 weeks after the uninephrectomy.
For evaluation of the effects of Compound A, statistical differences between vehicle- and Compound A treated groups were analyzed with one-tailed Williams' test for GHB, PG and BW and one-tailed Shirley-Williams' test for UACR. For irbesartan, statistical differences between vehicle- and irbesartan treated groups were analyzed with one-tailed Williams' test for UACR, GHb, PG and BW. The P-values less than 0.025 were considered statistically significant in one-tailed Williams' test or one-tailed Shirley-Williams' test.

[2] = system: connective tissue growth factor (CTGF) mRNA; assay: TGF-β-induced mRNA expression of connective tissue growth factor (CTGF) in human mesangial cells; type: cell-based; settings: 0.001-10 μM with forskolin 1 μM and TGF-β 3 ng/mL, 6 h
Experimental: (§1) Human mesangial cells were purchased from DS Pharma Biomedical (US). Compound A was obtained from Takeda GmbH, Konstanz, Germany. Forskolin and dimethyl sulfoxide (DMSO) were purchased from Wako Pure Chemical Industries, Ltd (Japan). Recombinant human TGF-β was purchased from R&D systems (USA).
(§2) On day 0, human mesangial cells were seeded at a cell density of 2×10^5 cells/well in CSC complete medium (Cell Systems, USA) on type 1 collagen-coated 24-well plate (AGC TECHNO GLASS Co. Ltd., Japan) in an atmosphere of 95% air and 5% CO2 at 37° C. On day 1, the cells were serum starved with CMC medium which is not containing serum and growth factors. On day 2, Compound A at final concentrations of 0.001, 0.01, 0.1, 1 and 10 μM or DMSO (control) was added to the culture medium. […] For the measurement of mRNA levels of type 1 collagen α1 chain and fibronectin, total RNA isolated at 24 hours after forskolin/TGF-β stimulation was used. mRNA expression levels were measured by quantitative real-time RT-PCR methods with TaqMan gene expression master mix and ABI PRISM 9700 (Life Technologies, USA) with target mRNA specific primer and probe sets [Human connective tissue growth factor (Hs1026927_g1); Human plasminogen activator inhibitor-1 (Hs00167155_m1); Human type 1 collagenal chain (Hs00164004_m1); Human fibronectin (HS00365052_m1); Humanglyceraldehyde 3-phosphate dehydrogenase (HS2758991_g1)]. […]

[3] = system: diet-induced obese (DIO) mice; assay: Body weight, fat and lean mass, 4 weeks treatment in diet-induced obese (DIO) mice; type: in vivo; settings: for body weight change from pretreatment (Day 0): mean ±S.D.
Experimental: Male C57BL/6J mice were obtained from CLEA Japan, Inc. The mice were fed High fat diet D12451 (Research diets, Inc) from 5 week to 54-week old and water ad libitum.
All mice were housed individually in animal cages and used for the study after 2 weeks of acclimation period. Animal groups (n=7) were treated with either vehicle (0.5 w/v % methylcellulose, p.o.) or Compound A (1 mg/kg or 3 mg/kg, p.o. suspension in 0.5w/v % methylcellulose solution) in the evening once a day for 4 weeks from 50 weeks of age. Body weight was measured 2 or 3 times per week. Regarding body composition fast mass and lean mass were measured.
Body composition (fat mass and lean mass) was measured by Echo-MRI-900 (ALOKA Japan).
All data are presented as mean ±S.D. For evaluation of the effects of Compound A, statistical significances between vehicle (p.o.) and Compound A treated groups were analysed with one-tailed Williams' test or Shirley-Williams test when the variances among the groups were homogeneous or heterogeneous, respectively. The p-values less than 0.025 were considered statistically significant in one-tailed Williams' test or Shirley-Williams test. Body weight change from pretreatment (Day 0) was calculated using the following formula: [(BW−BW at Day 0)/BW at Day 0]×100.

[4] = system: fibronectin mRNA; assay: TGF-β-induced mRNA expression of fibronectin in human mesangial cells; type: cell-based; settings: in the presence of forskolin 1 μM, TGF-β 3 ng/mL, 24 h
Experimental: as §1, §2

## CCOc1cc2c(cc1OC)C(c1ccc(=O)n(C)c1)=N[C@@H]1CC[C@@H](O)C[C@H]21 [Compound A, 5-((2R,4aR,10bR)-9-Ethoxy-2-hydroxy-8-methoxy-1,2,3,4,4a,10b-hexahydro-phenanthridin-6-yl)1-methyl-1H-pyridin-2-one]
[1]; 1 mg/kg QD oral
  effect on urinary albumin/creatinine ratio (UACR): suppressed the increase of UACR
[1]; 3 mg/kg QD oral
  effect on urinary albumin/creatinine ratio (UACR): reduced the UACR in the 3 mg/kg and 10 mg/kg group below the value at the beginning of the 8 weeks treatment period
[1]; 10 mg/kg QD oral
  effect on glucose plasma levels (PG): statistical significant effect
  effect on glycosylated hemoglobin (GHb): statistical significant effect
  effect on urinary albumin/creatinine ratio (UACR): reduced the UACR in the 3 mg/kg and 10 mg/kg group below the value at the beginning of the 8 weeks treatment period
[1]; 1, 3 and 10 mg/kg QD oral
  effect on body weight (BW): Neither Compound A nor Irbesartan affected the body weight
  effect on glucose plasma levels (PG): reduced GHb and PG in a dose-dependant manner
  effect on glycosylated hemoglobin (GHb): reduced GHb and PG in a dose-dependant manner
[2]
  effect on TGF-β-induced mRNA expression of CTGF: further suppressed by the treatment with Compound A in a concentration-dependent manner
[3]; 1 mg/kg p.o. once a day
  body weight reduction corrected with vehicle (p.o.)-treated body weight change: −8.7±3.5%
  body weight change from pretreatment (Day 0): −4.9±3.5%
[3]; 3 mg/kg p.o. once a day
  body weight change from pretreatment (Day 0): −17.2±4.0%
[3]; 1 and 3 mg/kg p.o. once a day
  effect on fat mass: dose dependently and significantly decreased fat mass
  effect on lean mass: without affecting lean mass
[4]
  concentration at which the inhibitory effect on mRNA expression of fibronectin was further enhanced: ≥ 0.1 µM
